“Also recorded” adds a separate entry of the source. Like-named read-outs stand apart in the source and are kept apart here. Ends that are not written are not given here.
Tests used:
rabbit ASM tissues [1] = assay: Constrictor responsiveness to acetylcholine (ACh) in isolated rabbit ASM tissues, isometric tension in organ bath
From the text: (§1) Detection of PDE4D5 mRNA transcripts: Total RNA was extracted from the cultured ASM cells using the TRIzol method (Invitrogen), and cDNAs were isolated by RT-PCR using the SuperScript First Strand Synthesis System kit from Invitrogen, with the following oligonucleotide primer sets (Integrated DNA Technologies): for PDE4D5, 5′-[…]-3′ (forward; SEQ ID NO: 2) and 5′-[…]-3′ (reverse; SEQ ID NO: 3); and for β-actin, 5′-[…]-3′ (forward; SEQ ID NO: 4) and 5′-[…]-3′ (reverse; SEQ ID NO: 5). The reaction volume was 20 μl and cycling conditions used were 35 cycles of 30 sec denaturation at 95° C., followed by 30 sec annealing at 60° C. and elongation at 72° C. for 30 sec. Ex-Tag (Takara Biotechnology) was used as DNA polymerase. […] Following protein extraction and the addition of gel-loading buffer, the extracts were loaded on a 10% SDS-PAGE gel for immunoblotting after transfer to a PVDF membrane. The membranes were then incubated overnight with monoclonal mouse anti-human primary antibodies directed against phospho-CREB and -ATF1, phospho-ERK1/2, or α-actin, and levels were detected by ECL after a 1-hr incubation with a 1:2,000 dilution of HRP-conjugated rabbit anti-mouse secondary antibody, followed by exposure to autoradiography film. The protein band intensities were quantified by densitometry. siRNA-mediated knockdown of PKA: ASM cells were seeded into 6-well plates and, at ˜40% confluency, the medium was replaced with the reduced serum-containing medium, Opti-MEM (Invitrogen). The cells were then transfected twice during a 24-hr interval with two pools of three siRNA duplexes, each pool targeted against the human PKAα or PKAγ catalytic subunits (Santa Cruz Biotechnology; sc-36240 and sc-36236, respectively), or with a non-targeted control (scrambled) siRNA duplex, using Oligofectamine (Invitrogen) as the transfection agent. The pools of siRNAs were applied to each well at a final concentration of 100 nM for each siRNA preparation. […] Transfection of ASM cells with adeno-βARK-ct: Adenovirus (adeno)-βARK-ct, an adenovirus vector encoding the βARK1 carboxyl-terminal domain which blocks Gβγ signaling (25,26), and adeno-β-gal, an adenovirus vector expressing lacZ as a negative control, were constructed using the AdenoX adenovirus construction kit (BD-Clontech). Recombinant plaques were isolated and propagated in HEK293 cells (Invitrogen), with viral purification using the cesium chloride gradient method, and viral titer detected by plaque assay. The ASM cells were transfected with either of the adenoviral vectors at a multiplicity of infection (MOI) of 100, and experiments were conducted at 24 hr following adenoviral tranfections. Pharmacodynamic studies of constrictor and relaxation responsiveness in rabbit ASM tissues: Following initial sedation and subsequent general anesthesia with intramuscular injections of xylazine (10 mg/kg) and ketamine (50 mg/kg), respectively, rabbits were sacrificed with an intravenously administered overdose of sodium pentobarbital (100 mg/kg). As described previously (16), the tracheae were excised via open thoracotomy, the loose connective tissue and epithelium were scraped and removed, and the tracheae were divided into 8 ring segments, each of 6-8 mm in length. […] After these incubations, the tissues were placed in organ baths containing modified Krebs-Ringer solution aerated with 5% CO2 in oxygen (pH of 7.35-7.40), and attached to force transducers to continuously monitor isometric tension. […] The constrictor and relaxation dose-response curves were analyzed with respect to each tissue's maximal isometric contractile force (Tmax) to ACh and maximal relaxation response (Rmax) to isoproterenol from the initial level of active cholinergic contraction. Statistical analyses: Results are expressed as mean±SE values. Comparisons between groups were made using the Student's t-test (two-tailed) or ANOVA with Tukey's post-test analysis, where appropriate.

rabbit ASM tissues [2] = assay: Relaxation responsiveness to isoproterenol in isolated rabbit ASM tissues half-maximally contracted with ACh
From the text: as §1

PDE4D5 mRNA = assay: Detection of PDE4D5 mRNA transcripts by RT-PCR in ASM cells; assay type: cell-based, human
From the text: as §1

CREB/ATF1 = assay: Immunoblot analysis of CREB/ATF1 phosphorylation in ASM cells; assay type: cell-based, human
From the text: as §1

ERK1/2 = assay: Immunoblot analysis of ERK1/2 phosphorylation in ASM cells; assay type: cell-based, human
From the text: as §1

human ASM cells = assay: Assay of cAMP PDE activity in ASM cell lysates; assay type: cell-based; conditions: for effect of pretreatment on PGE2-induced increase in PDE activity: PGE2 100 nM x 24 hr, peptides 30 μM (Example III)
[3] = vehicle-exposed control tissues

Q: With pertussis toxin [PTX] as the molecule, how does the “effect of pretreatment on PGE2-induced increase in constrictor responsiveness to ACh” value (rabbit ASM tissues [1]; PGE2 100 nM x 24 hr) read?
A: Its value is “abrogated”.

Q: What about the “effect of the agent alone on constrictor responses to ACh” value (rabbit ASM tissues [1]; [3]) of the same molecule?
A: The value was “no significant effect”.

Q: What about the “effect of pretreatment on PGE2-induced impaired relaxation to isoproterenol” value (rabbit ASM tissues [2]; PGE2 100 nM x 24 hr) of the same molecule?
A: The value was “abrogated”.

Q: And the “effect of the agent alone on relaxation responses to isoproterenol” value (rabbit ASM tissues [2]; [3])?
A: Its value is “no significant effect”.

Q: And the “effect of pretreatment on PGE2-induced upregulated PDE4D5 mRNA expression” value (PDE4D5 mRNA; PGE2 100 nM, 6 hr)?
A: The value was “markedly inhibited; also recorded: ablated”.

Q: And the “effect of pretreatment on β2AR agonist (isoproterenol)-induced upregulated PDE4D5 mRNA expression” value (from here on “effect of pretreatment on β2AR agonist”) (PDE4D5 mRNA; isoproterenol 10 μM, 6 hr)?
A: The value was “prevented; also recorded: ablated”.

Q: And the “effect on PGE2-induced phosphorylation of CREB/ATF1” value (“effect … of CREB/ATF1” for short) (CREB/ATF1; PGE2 100 nM, 30 min)?
A: The value was “largely prevented; also recorded: ablated”.

Q: What about the “effect on PGE2-induced phosphorylation of ERK1/2” value (ERK1/2; PGE2 100 nM, 30 min) of the same molecule?
A: Its value is “largely prevented; also recorded: ablated”.

Q: And the “effect of pretreatment on PGE2-induced increase in PDE activity” value (human ASM cells)?
A: The value was “completely ablated”.

Q: And the “effect of pretreatment on PGE2- and forskolin-induced increases in PDE activity” value (human ASM cells; PGE2 or forskolin x 24 hr (100 μM in text, 100 nM in legends))?
A: The value was “completely ablated”.

Q: What about the “effect of pretreatment on salmeterol- and isoproterenol-induced increase in PDE activity” value (human ASM cells; salmeterol or isoproterenol 10 μM x 24 hr) of the same molecule?
A: Its value is “completely abrogated; also recorded: ablated”.

Q: For `Oc1c2ccccc2c2c3c(cccc13)N=N2` [SP600125], which “effect of pretreatment on β2AR agonist” value (PDE4D5 mRNA; isoproterenol 10 μM, 6 hr) is on record?
A: The value was “no effect”.

Q: How did the “effect of pretreatment on PGE2-induced increase in PDE activity” value (human ASM cells) turn out when “MPS- Gαi2 (AAVALLPAVLLALLAKNNLKDCGLF; also: MPS attached) [Gαi2 blocking peptide]” was run?
A: The value was “only a partial inhibitory effect”.

Q: What about the “effect of pretreatment on PGE2-induced increase in PDE activity” value (human ASM cells; listed as anti-Gαi2 inhibitory peptide) of the same molecule?
A: Its value is “only exerts a partial inhibitory effect”.

Q: How did the “effect of pretreatment on PGE2-induced upregulated PDE4D5 mRNA expression” value (PDE4D5 mRNA; PGE2 100 nM, 6 hr) turn out when `CN(C)S(=O)(=O)c1ccc2c(c1)/C(=C/c1cc3c([nH]1)CCCC3)C(=O)N2` [SU6656] was run?
A: The value was “ablated”.

Q: What about the “effect of pretreatment on PGE2-induced upregulated PDE4D5 mRNA expression” value (PDE4D5 mRNA; PGE2 100 nM, 6 hr, listed as Src inhibitor) of the same molecule?
A: Its value is “markedly inhibited”.

Q: And the “effect of pretreatment on β2AR agonist” value (PDE4D5 mRNA; isoproterenol 10 μM, 6 hr)?
A: Its value is “prevented; also recorded: ablated”.

Q: And the “effect … of CREB/ATF1” value (CREB/ATF1; PGE2 100 nM, 30 min)?
A: Its value is “largely prevented; also recorded: ablated”.

Q: What about the “effect on PGE2-induced phosphorylation of ERK1/2” value (ERK1/2; PGE2 100 nM, 30 min) of the same molecule?
A: Its value is “largely prevented; also recorded: ablated”.

Q: Which “effect on PGE2-induced phosphorylation of ERK1/2” value (ERK1/2; PGE2 100 nM, 30 min) does the source give for `COC(=O)[C@H](CC(C)C)NC(=O)c1ccc(NC[C@@H](N)CS)cc1-c1cccc2ccccc12` [GGTI-298] here?
A: The value was “did not exhibit attenuated; also recorded: no effect”.

Q: What about the “effect on isoproterenol (β2AR agonist)-induced phosphorylation of ERK1/2” value (ERK1/2; isoproterenol 10 μM, 20 min) of the same molecule?
A: Its value is “did not exhibit attenuated; also recorded: no effect”.

Q: Which “effect of pretreatment on PGE2-induced increase in constrictor responsiveness to ACh” value (rabbit ASM tissues [1]) does the source give for `N#CC(=C(/N)Sc1ccccc1N)/C(C#N)=C(\N)Sc1ccccc1N` [U0126] here?
A: Its value is “abrogated”.

Q: What about the “effect of pretreatment on salmeterol-induced increase in constrictor responsiveness to ACh” value (rabbit ASM tissues [1]) of the same molecule?
A: Its value is “completely abrogated; also recorded: prevents”.

Q: What about the “effect of the agent alone on constrictor responses to ACh” value (rabbit ASM tissues [1]) of the same molecule?
A: Its value is “no significant effect; also recorded: did not exhibit any significant changes”.

Q: And the “effect of pretreatment on PGE2-induced impaired relaxation to isoproterenol” value (rabbit ASM tissues [2])?
A: Its value is “abrogated”.

Q: What about the “effect of pretreatment on salmeterol-induced impaired relaxation to isoproterenol” value (rabbit ASM tissues [2]) of the same molecule?
A: Its value is “completely ablated; also recorded: prevents”.

Q: What about the “effect of the agent alone on relaxation responses to isoproterenol” value (rabbit ASM tissues [2]) of the same molecule?
A: The value was “no significant effect; also recorded: did not exhibit any significant changes”.

Q: And the “effect of pretreatment on PGE2-induced upregulated PDE4D5 mRNA expression” value (PDE4D5 mRNA)?
A: Its value is “largely prevented; also recorded: ablated”.

Q: And the “effect of pretreatment on β2AR agonist” value (PDE4D5 mRNA)?
A: The value was “largely prevented; also recorded: ablated”.

Q: What about the “effect … of CREB/ATF1” value (CREB/ATF1) of the same molecule?
A: The value was “abrogated; also recorded: ablated”.

Q: And the “effect on PGE2-induced phosphorylation of ERK1/2” value (ERK1/2)?
A: The value was “completely abrogated; also recorded: ablated”.

Q: What about the “effect on isoproterenol (β2AR agonist)-induced phosphorylation of ERK1/2” value (ERK1/2) of the same molecule?
A: Its value is “ablated”.

Q: And the “effect of pretreatment on PGE2- and forskolin-induced increases in PDE activity” value (human ASM cells)?
A: The value was “completely ablated”.

Q: And the “effect of pretreatment on salmeterol- and isoproterenol-induced increase in PDE activity” value (human ASM cells)?
A: The value was “prevented; also recorded: ablated”.

Q: And the “effect of the agent alone on basal PDE activity” value (human ASM cells)?
A: Its value is “neither H89 nor U0126 alone had a significant effect”.

Source: US8569229B2, “Compositions and methods which modulate G-protein signaling for the treatment of inflammatory disorders such as asthma and allergic conjunctivitis” (The Children's Hospital of Philadelphia, priority 2008, dated 2013)
